Reference: US8592483B2, “Method for treating schizophrenia” (Sucampo AG, priority 2011, dated 2013)

Legend:
[1] = test system: PCP-disrupted PPI response in rats; assay: PCP-disrupted PPI response in rats, oral administration; assay type: in vivo, Male Wistar rats; settings: PCP 1.5 mg/kg s.c.; for % PPI (Mean ± SEM): 0.3 mg/kg oral, 45 min before PPI (30 min before PCP), pre-pulse 63 dB, startle 110 dB; for effect on PCP-disrupted PPI response: oral administration 45 min before PPI
Procedure: (§1) Male Wistar rats (n=135) (200-300 g) were used. Animals are housed at a standard temperature (22±1° C.) and in a light-controlled environment (lights on from 7 am to 8 pm) with ad libitum access to food and water. Animals are treated with Phencyclidine (PCP) at 1.5 mg/kg, s.c., and tested in Pre-Pulse Inhibition (PPI) 15 min later. Oral administration of Compound B ((+)-isopropyl (Z)-7-[(1R,2R,3R,5S)-3,5-dihydroxy-2-(3-oxodecyl)cyclopentyl]hept-5-enoate) and Compound C ((E)-7-[(1R,2R)-2-(4,4-difluoro-3-oxooctyl)-5-oxocyclopentyl]hept-2-enoic acid) and corresponding vehicle was done 45 min before PPI, which means each compound or vehicle was administered 30 min before PCP injection.
(§2) PPI tests were conducted in standard startle chambers (SR-LAB Startle Response system, San Diego Instruments, USA). Before the PPI testing, the animals were habituated to handling. On the day of PPI testing, the animals were placed in the chamber and allowed to habituate for a period of 300 s. After habituation period, the rats received 12 startle trials, 12 no-stimulus trials, and 12 trials of the pre-pulse/startle trials (3×12 trials). The startle trials consists of single 110 dB white noise burst lasting 20 ms. The PPI trials consist of a pre-pulse (20 ms burst of white noise with intensities of 63 dB) followed 100 ms later by a startle stimulus (110 dB, 20 ms white noise). During the no-stimulus trial, no startle noise is presented. The resulting movement of the rat in the startle chamber is measured during 100 ms after startle stimulus onset. Basal startle amplitude is determined as the mean amplitude of the 12 startle trials. % PPI is calculated according to the formula 100−100%×(PP/P110), in which PP is the mean of the 12 pre-pulse inhibition trials (i.e., for each individual pre-pulse intensity), and P110 is the basal startle amplitude. The animals are treated with PCP s.c. and then tested in PPI 15 min later.

[2] = test system: PCP-disrupted PPI response in rats; assay: PCP-disrupted PPI response in rats (schizophrenia model), intravenous administration; assay type: in vivo, Male Wistar rats; settings: PCP 1.5 mg/kg s.c.; for % PPI (Mean ± SEM): 0.5 mg/kg intravenous, 15 min before PPI (immediately before PCP), pre-pulse 60 dB, startle 110 dB; for effect on PCP-disrupted PPI response: intravenous administration 15 min before PPI
Procedure: as §1, with “Intravenous” for “Oral”, “of Compound A ((−)-7-[(1R,2R)-2-(4,4-difluoro-3-oxooctyl)-5-oxocyclopentyl]heptanoic acid),” for “of”, “and” for “and Compound C ((E)-7-[(1R,2R)-2-(4,4-difluoro-3-oxooctyl)-5-oxocyclopentyl]hept-2-enoic acid) and”, “15” for “45”, “immediately” for “30 min”
as §2, with “60” for “63”

CCCCC(F)(F)C(=O)CC[C@H]1CCC(=O)[C@@H]1CCCC/C=C/C(=O)O [Compound C, (E)-7-[(1R,2R)-2-(4,4-difluoro-3-oxooctyl)-5-oxocyclopentyl]hept-2-enoic acid]
% PPI (Mean ± SEM) [1]: 24.7 ± 5.0% | effect on PCP-disrupted PPI response [1]: improved the PCP-disrupted PPI response

CCCCCCCC(=O)CC[C@@H]1[C@@H](C/C=C\CCCC(=O)OC(C)C)[C@@H](O)C[C@H]1O [Compound B, (+)-isopropyl (Z)-7-[(1R,2R,3R,5S)-3,5-dihydroxy-2-(3-oxodecyl)cyclopentyl]hept-5-enoate]
% PPI (Mean ± SEM) [1]: 24.0 ± 5.3% | effect on PCP-disrupted PPI response [1]: improved the PCP-disrupted PPI response | % PPI (Mean ± SEM) [2]: 40.5 ± 4.2% | effect on PCP-disrupted PPI response [2]: improved the PCP-disrupted PPI response

CCCCC(F)(F)C(=O)CC[C@H]1CCC(=O)[C@@H]1CCCCCCC(=O)O [Compound A, (−)-7-[(1R,2R)-2-(4,4-difluoro-3-oxooctyl)-5-oxocyclopentyl]heptanoic acid]
% PPI (Mean ± SEM) [2]: 34.2 ± 3.9% | effect on PCP-disrupted PPI response [2]: improved the PCP-disrupted PPI response
